For data set [1], the system named is intestinal microsomal heme oxygenase. In words: Intestinal microsomal heme oxygenase activity after a single dose to rats. It is filed as in vivo, rat. The following applies: for Heme Oxygenase Activity in the Gut, Average: control 2.70 + 0.09. The procedure: (§1) Rats were maintained on Standard Purina Rodent Chow (St. Louis, Mo.), and were allowed to acclimatize to a light-cycled room (12 hr light/dark cycle) for at least one week prior to study. SnPP was dissolved in a small volume (0.2 ml/ml final volume) of 0.2N Na3 PO4 12H2 O, adjusted to pH 7.4 with 1M HCl and made up to a final volume with 0.9% NaCl under subdued light. SnPP was administered either subcutaneously or by gavage in a single dose of 25 umoles/kg body weight (4.0 ml/kg body weight). Control rats received an equivalent volume of diluent. All rats were allowed free access to food and water.
(§2) Animals were sacrificed at the times indicated in the legend to the Table and in the above and following descriptions of the Figures, and then exhaustively perfused in situ with ice-cold 0.9% NaCl through the left ventricle. The small intestine was cut at the pyloric junction and the entire length of the intestine irrigated in situ with 30 ml of ice-cold 0.9% NaCl to remove intestinal contents. Beginning at 5 cm, a 20 cm segment of small intestine was excised and irrigated once more with 30 ml of saline. The mucosa was then gently scraped off with a stainless steel scalpel and placed in ice-cold potassium phosphate buffer (0.1M, pH 7.4), containing sucrose (0.25M), 20% glycerin (v/v), trypsin inhibitor (5 mg/ml), and heparin (3 U/ml), as described by Stohs et al, Arch. Biochem Biophys. 177: 105-116 (1976). Following sonication and homogenization, intestinal microsomes were then prepared by differential centrifugation as described in Rosenberg et al, Biochem. Pharmacol. 38: 1155-1161 (1988). The microsomal pellet was rinsed and resuspended in 1.5 ml of potassium phosphate buffer (0.1M, pH 7.4) to a protein concentration of approximately 5-10 mg/ml. Microsomes were freshly prepared on a daily basis for all subsequent assays. The activity of heme oxygenase was determined as described in Maines et al, J. Biol. Chem. 250: 4171-4178 (1975), using the 105,000xg supernatant fraction derived from normal rat liver as the source of biliverdin reductase, and a hemin concentration of 50 uM. Bilirubin formation was calculated using an absorption coefficient of 40 mm^1 cm^1 between 464 and 530 nm (See Maines et al, Proc. Natl. Acad. Sci. USA 71: 4293-4297 (1974)). Protein content was determined by method of Lowry et al, J. Biol. Chem. 193: 265-275 (1951) suing bovine serum albumin as a standard.
A single does of SnPP (25 umoles/kg b.w.) was administered either orally or parenterally to rats, and heme oxygenase levels were determined in the small intestinal epithelium at the times indicated in FIG. 1. This dose was selected to match that previously used by other investigators (See Hintz et al, Ped. Res. 23: 50-53 (1988)). Following oral treatment, heme oxygenase activity was rapidly (within 3 hours) inhibited (50% of controls), but the levels returned to normal within 16-24 hours after treatment.

Data set [2] shares this test system. Briefly: Competitive inhibition of intestinal microsomal heme oxygenase in vitro. It is filed as biochemical, rat. The procedure:
SnPP (o) was added to intestinal microsomes at concentrations of […]. The heme concentration was 50 uM. Heme oxygenase activity was determined as described below under Materials and Methods. Each point represents the mean of at least 3 individual experiments. Similar results obtain for other metalloporphyrins within the scope of the present invention.
as §2
This is similar to the Km reported for heme in hepatic and splenic microsomes (See Kappas et al, J. Clin. Invest. 77: 335-339 (1986); Yoshinaga et al, J. Biol. Chem. 257: 7778-7785 (1982)).

The conditions of data set [3]: rat, in vivo, po. The protocol: as §1
All tin analyses were performed on Zeeman/5000 atomic absorption spectrophotometer equipped with an HGA-500 graphite furnace Perkin-Elmer Corp., Norwalk, Conn.). The graphite furnace utilized the L'vov platform (See Slavin et al, At. Spectrosc. 2: 137-145 (1981)) with an appropriate wavelength (286.4 nm) and instrumental operating conditions as recommended by the manufacturer and optimized in our laboratory for tin measurement. All tin analyses included magnesium nitrate and ammonium phosphate in 20% nitric acid as a matrix modified.
For Table II: SnPP was adminsitered to rats in a single dose (25 umoles/kg body weight) either orally or subcutaneously. Tissue tin levels were determined 48 hours later by graphite furnace atomic absorption spectroscopy. […]

The test system of data set [4] is intestinal heme oxygenase. The following applies: in vitro or in vivo after administration of SnPP; Hintz et al 1988; cited from earlier work.
The mark [5] stands for this setting: SnPP 25 umoles/kg single oral dose, rat.

As usually defined, the Km is the concentration of substrate that gives half-maximal velocity. What is called Ki is the dissociation constant of the complex between target and ligand, obtained from inhibition or displacement. A low value points to tighter binding.

Like-named read-outs stand apart in the source and are kept apart here.

Turning to chromium mesoporphyrin [CrMP], the “Heme Oxygenase Activity in the Gut, Average” value in data set [1] (3 hours after oral 25 umol/Kg CrMP) was 0.64 + 0.38; in data set [1] (16 hours after oral 25 umol/Kg CrMP), 1.04 + 0.02; in data set [1] (24 hours after oral 25 umol/Kg CrMP), 1.85 + 0.07; in data set [1] (48 hours after oral 25 umol/Kg CrMP) it was 2.57 + 0.07.
As to `C=CC1=C(C)c2cc3[n-]c(cc4[n-]c(cc5nc(cc1n2)C(C)=C5C=C)c(C)c4CCC(=O)O)c(CCC(=O)O)c3C.[Fe+2]` [heme, reference compound], the Km in data set [2] (intestinal microsomes, no inhibitor, linear regression, read-out: apparent Km for the substrate heme) was 8.21 µM.
As for `C=Cc1c2[n-]c(c1C)/C=c1\[n-]/c(c(C)c1C=C)=C\c1[n-]c(c(CCC(=O)O)c1C)/C=c1\[n-]c(c(C)c1CCC(=O)O)=C2.[Sn+4]` [SnPP, tin protoporphyrin], in data set [3], the “absorption from the gastrointestinal tract” value is reported as “very low degree of absorption”. Further, in data set [1] (setting [5]), the “heme oxygenase activity in small intestinal epithelium” value is listed as 50 % of controls, the “time for heme oxygenase levels to return to normal” value was 16 to 24 h and the “time to inhibition of heme oxygenase activity” value is no more than 3 h. For the same compound, in data set [1] (SnPP 25 umoles/kg single parenteral (subcutaneous) dose, rat), the “inhibition of heme oxygenase activity” value came to 65 % inhibition. In data set [1] (SnPP 25 umoles/kg single parenteral dose, rat), the “persistence of decreased heme oxygenase activity” value is reported as “at least 48 hours”. Moreover, the “inhibition of intestinal heme oxygenase” value in data set [4] is given as “no inhibition”. For the same compound, the Km in data set [2] (SnPP 0.05 uM, intestinal microsomes, read-out: Km for heme in presence of SnPP) was found to be 23.9 µM. Also, in data set [2] (SnPP 0.1 uM, intestinal microsomes, read-out: Km for heme in presence of SnPP), the Km worked out at 56.2 µM. In addition, the “increase in the Km for heme” value in data set [2] (SnPP 0.05 and 0.1 uM) was 3- to 7 fold. Besides, the “type of inhibition of enzyme activity” value in data set [2] (SnPP 0.05 and 0.1 uM added to incubation mixtures) is given as “marked competitive inhibition”. In addition, in data set [2] (intestinal microsomes), the affinity, expressed as Ki, was 17 nM.

Values taken from patent US5223494A, “Orally administered porphyrins to control intestinal iron absorption” (The Rockefeller University, priority 1990, dated 1993).
